What was measured:
[1] = system: BV2 (mouse microglia) cell line; experiment: pHrodo-myelin phagocytosis/cell viability high content imaging assay: phagocytosis signal; type: cell-based
Protocol: (§1) It is important to note that stressed cells, such as those that are dying, are prone to show an increase in phagocytosis. […] MerTK promotes phagocytosis and thus MerTK inhibition is proposed to lead to inhibition of phagocytosis.[47]
(§2) phagocytosis and cell viability simultaneously. High content imaging is performed with the
(§3) (approximately 22 hours after pHrodo-myelin addition). Three measurements are extracted
(§4) intensity increase (early apoptosis) and decrease (later apoptosis), respectively. These
and 3). […]

[2] = system: HMC3 (human microglia) cell line; experiment: as above; type: cell-based
Protocol: as §1, §2, §3, §4
and 3). […]

[3] = system: BV2 (mouse microglia) cell line; experiment: pHrodo-myelin phagocytosis/cell viability high content imaging assay: viability (cell count, nuclear area, nuclear intensity); conditions: for 1. Cell count (% control) / 2. Nuclear Area (% Control) / 3. Nuclear DNA Intensity (% control): 48 hours treatment
Protocol: (§5) All AD Informer Set compounds were tested in two immortalized microglial cell lines, murine (BV2), and human (HMC3), in a high‐content imaging assay in duplicate by the Chu lab. Experimental details and all data can be found as supporting information files.
(§6) The role of microglia in AD has been well documented and was thus chosen as a cell type in which to profile the AD Informer Set.[43], [44], [45] As an example, neuroinflammation, as detected by the presence of activated complement proteins, interleukins, cytokines, and chemokines in microglia and astrocytes, is increased early in AD and is considered pathogenic due to its chronic nature.[33], [34] Cytotoxic effects can be assessed by considering multiple parameters.
(§7) Microglial viability and phagocytosis studies: The pHrodo-myelin phagocytosis/cell viability assay, modified based on a published method, was run with immortalized BV2 (mouse microglia) and HMC3 (human microglia) cell lines in the Chu lab at IUSM. The 384-well plate high content analysis assay with BV2 and HMC3 microglial cell lines is used to quantify both phagocytosis and cell viability simultaneously. High content imaging is performed with the ArrayScan automatic imaging system and imaging analysis done with the software on the system. After allowing cells to adhere overnight, they are treated with compounds for total 48 hours including final 20 hours seeded with pHrodo-myelin (labeled phagocytosis ligand, purified […]
(§8) (approximately 22 hours after pHrodo-myelin addition). Three measurements are extracted from the assay: 1) phagocytosis signal by mean total phagocytosis spot intensity per cell, 2) total cell counts per well as the main measurement of cell viability, and 3) mean average nuclear intensity per cell as profiling of cell health since apoptotic cells showing nuclear intensity increase (early apoptosis) and decrease (later apoptosis), respectively. These measurements allow for evaluation of compound-induced phagocytosis (1) and cytotoxicity (2 and 3). Assays were carried out at a single concentration (10 μM). Idelalisib (10 μM) and cytochalasin-D (4 μM) were used as positive controls in the assay. All data, which was an average of 2 data points, was normalized to untreated wells and reported as % control, which is included in the Supporting Information both as a raw data file and summarized in the compound/gene-annotation file.

[4] = system: HMC3 (human microglia) cell line; experiment: as above; conditions: for 1. Cell count (% control) / 2. Nuclear Area (% Control) / 3. Nuclear DNA Intensity (% control): 48 hours treatment
Protocol: as §5, §6, §7, §8

[5] = BV2 cells, 10 uM compound, 48 hours treatment, pHrodo-myelin final 20 hours
[6] = HMC3 cells, 10 uM compound, 48 hours treatment, pHrodo-myelin final 20 hours
[7] = BV2, compound 10 uM, pHrodo-myelin
[8] = HMC3, compound 10 uM, pHrodo-myelin

Compound | 4. Phagocytosis (% control) [1, 5] [% control] | 4. Phagocytosis (% control) [2, 6] [% control] | 1. Cell count (% control) ([3]; BV2 cells, 10 uM compound) | 2. Nuclear Area (% Control) ([3]; BV2 cells, 10 uM compound) | 3. Nuclear DNA Intensity (% control) ([3]; BV2 cells, 10 uM compound) | 1. Cell count (% control) ([4]; HMC3 cells, 10 uM compound) | 2. Nuclear Area (% Control) ([4]; HMC3 cells, 10 uM compound) | 3. Nuclear DNA Intensity (% control) ([4]; HMC3 cells, 10 uM compound) | cytotoxicity in mouse microglial cells (cell count < 70% control) ([3]; BV2, 10 μM, 48 hours, cell count) | cytotoxicity in human microglial cells (cell count < 70% control) ([4]; HMC3, 10 μM, 48 hours, cell count) | 4. Phagocytosis (% control) [1, 7] [% control] | 4. Phagocytosis (% control) [2, 8] [% control] | 1. Cell count (% control) ([3]; BV2, compound 10 uM) | 2. Nuclear Area (% Control) ([3]; BV2, compound 10 uM) | 3. Nuclear DNA Intensity (% control) ([3]; BV2, compound 10 uM) | 1. Cell count (% control) ([4]; HMC3, compound 10 uM) | 2. Nuclear Area (% Control) ([4]; HMC3, compound 10 uM) | 3. Nuclear DNA Intensity (% control) ([4]; HMC3, compound 10 uM)
COc1cc(C(=O)NS(=O)(=O)c2ccccc2C)ccc1Cc1cn(C)c2ccc(NC(=O)OC3CCCC3)cc12 [UNC10121228A] | 129.0 | 87.2 | 90.6 | 103.2 | 103.9 | 110.1 | 100.7 | 103.6 |  |  |  |  |  |  |  |  |  | 
C=CC[C@@H]1/C=C(\C)C[C@H](C)C[C@H](OC)[C@H]2O[C@@](O)(C(=O)C(=O)N3CCCC[C@H]3C(=O)O[C@H](/C(C)=C/[C@@H]3CC[C@@H](O)[C@H](OC)C3)[C@H](C)[C@@H](O)CC1=O)[C@H](C)C[C@@H]2OC [UNC10121346A] | 195.2 | 110.2 | 60.9 | 110.1 | 115.2 | 103.0 | 100.5 | 98.5 |  |  |  |  |  |  |  |  |  | 
CN(CCOc1ccc(CC2SC(=O)NC2=O)cc1)c1ccccn1 (stereo not shown) [UNC10121399D] | 142.2 | 81.9 | 82.8 | 102.9 | 100.2 | 93.9 | 101.5 | 97.8 |  |  |  |  |  |  |  |  |  | 
CCC(=O)O[C@]1(C(=O)SCF)[C@H](C)C[C@H]2[C@@H]3C[C@H](F)C4=CC(=O)C=C[C@]4(C)[C@@]3(F)[C@@H](O)C[C@@]21C [UNC10121416A] | 95.5 | 94.0 | 84.8 | 98.6 | 113.9 | 136.9 | 109.9 | 86.5 |  |  |  |  |  |  |  |  |  | 
COc1ccc(/C=C/C(=O)c2ccc(OC)cc2OC)cc1 [UNC10121790A] | 199.6 | 97.7 | 72.4 | 107.4 | 104.1 | 66.8 | 97.3 | 138.7 |  |  |  |  |  |  |  |  |  | 
C=CC(=O)Nc1cc2c(Nc3ccc(F)c(Cl)c3)ncnc2cc1OCCCN1CCOCC1.Cl.Cl [UNC10126563B] | 4.1 | 0.263 | 25.9 | 92.7 | 52.1 | 45.6 | 65.0 | 201.5 |  |  |  |  |  |  |  |  |  | 
Cc1ccc(NC(=O)c2ccc(CN3CCN(C)CC3)cc2)cc1Nc1nc(-c2cccnc2)cs1 [UNC10126573A, masitinib, reference compound] | 0.0635 | 3.5 | 7.7 | 107.9 | 43.3 | 71.0 | 92.7 | 124.1 | displayed cytotoxicity only in mouse microglia | cytotoxicity only in mouse microglia |  |  |  |  |  |  |  | 
O=C(Nc1c[nH]nc1-c1nc2cc(CN3CCOCC3)ccc2[nH]1)NC1CC1 [UNC10126643A] | 1.0 | 64.5 | 6.1 | 158.4 | 29.9 | 85.8 | 114.0 | 123.7 |  |  |  |  |  |  |  |  |  | 
CC(C)(C)c1cc(NC(=O)Nc2ccc(-c3cn4c(n3)sc3cc(OCCN5CCOCC5)ccc34)cc2)no1 [UNC10220373A] |  |  |  |  |  |  |  |  |  |  | 143.1 | 81.7 | 110.4 | 100.2 | 106.6 | 110.3 | 101.4 | 94.2
C[C@@H](Oc1cc(-c2cnn(C3CCNCC3)c2)cnc1N)c1c(Cl)ccc(F)c1Cl [UNC10220526A] | 0.00113 | 0.09 | 44.9 | 109.8 | 15.3 | 41.7 | 75.9 | 183.7 |  |  |  |  |  |  |  |  |  | 
Nc1nc(Nc2ccc3c(c2)CC[C@@H](N2CCCC2)CC3)nn1-c1cc2c(nn1)-c1ccccc1CCC2 [UNC10220544A] | 0.0 | 0.8 | 2.8 | 94.5 | 55.2 | 56.4 | 55.3 | 170.6 |  |  |  |  |  |  |  |  |  | 
CC1(COc2ccc3c(c2)ncn3-c2ccc3cccc(N4CCC(N)CC4)c3n2)COC1 [UNC10223898A] |  |  |  |  |  |  |  |  |  |  | 0.00125 | 0.347 | 26.6 | 103.7 | 28.1 | 60.3 | 56.9 | 188.8
Cc1ccc(-n2nc(C(C)(C)C)cc2NC(=O)Nc2ccc(OCCN3CCOCC3)c3ccccc23)cc1 [UNC10225354A] | 236.7 | 109.7 | 127.7 | 105.8 | 105.3 | 144.2 | 99.1 | 93.2 |  |  |  |  |  |  |  |  |  | 
